Consider one substance from patent publication US4512980A, “Peptide, process for preparation thereof and use thereof” (priority 1979, dated 1985).

For one assay, the system named is Mice (DDY male 5-6 W). Kind of assay: Blood stream clearance of carbon. The following applies: carbon clearance measured 24 hours later. Type of assay: in vivo. As to the method: 1. Carbon suspension. Rotoring drawing ink (170 mg carbon/ml.) was diluted to 1/5 of the original concentration in saline containing 1% gelatin. 2. 0.1% aqueous sodium carbonate solution. Mice (DDY male 5-6 W) were injected via the tail vein with a dose of 0.01 ml/g body weight of carbon. Blood samples were taken by means of a pointed capillary […] calibrated to hold a 50 μl and previously washed in heparin. This was plunged into the retroorbital venous sinus at the nasal angle of the eye. The samples were removed at 3 and 6 min. The blood was immediately discharged into 3.0 ml. of the sodium carbonate solution. This hemolyzed the blood and allowed the quantitation of carbon. The samples were then read in a spectrophotometer at 660 nm, the log concentration being obtained from a previously determined standard curve. The clearance value K may be determined by plotting log carbon concentration against time according to the following relationship; [formula] in which T1 and T2 represent the time in min when the sample were withdrawn and C1 and C2 represent the concentrations of carbon in the blood at the time T1 and T2, respectively. The aqueous solution of the drug as given was administered subcutaneously to mice. Twenty four hours later, blood stream clearance of carbon was measured. K value obtained with treated mice was compared with that of control mice.

The next assay relates to E. coli 22. The assay is described as follows: Protective efficacy in experimental infection in mice. Type of assay: in vivo. The following applies: male ICR mice, E. coli 22 i.p., survival after four days. As for the experimental part:
In determining the protective efficacy against experimental infections in mice, the test compound was dissolved in and diluted with sterile saline to provide prescribed concentrations of drug.
Male ICR-strain mice, aged 4 weeks were used in groups of ten mice. E. coli 22 was cultivated overnight at 37° C. on trypticase soy agar and then were suspended in a sterile saline to obtain microbial cell concentration of 9.0×10^7 CFU/ml. Mice were inoculated intraperitoneally with 0.2 ml of the suspension. Each of the test drugs was given intraperitoneally in various doses to a group of ten mice 24 hours before challenge.
Survival percent were found from the number of the surviving animals after four days of injection.

Consider “D-Lac-L-Ala-γ-D-Glu(α-OH)-(L)-[D-Lac-L-Ala-γ-D-Glu(α-OH)-(L)-mesoDAP-(D)-Gly]-(D)-mesoDAP-(L)-GlyOH [Example 13 (Step 2)]”, for which the “K treated/K control” value was 0.6 with Mice (DDY male 5-6 W) (dose 1 mg/mouse subcutaneously) and 1.6 in the assay with Mice (DDY male 5-6 W) (dose 100 mg/mouse subcutaneously). Further, the “Survival (%)” value in the assay with E. coli 22 (dose 1 mg/kg intraperitoneally 24 hours before challenge) and in the assay with E. coli 22 (dose 10 mg/kg intraperitoneally 24 hours before challenge) was 100% each time.
